According to US9650395B2, “Antibacterial compounds and methods for use” (PTC Therapeutics, Inc., priority 2011, dated 2017):
In brackets after ≈: the same amount, converted by molar mass.

How the values were obtained:
[1] = test system: control Gram-negative E. coli 25922 strain; assay: Antibacterial activity, microbroth dilution MIC, E. coli 25922; format: cell-based, Escherichia coli; settings: Escherichia coli; E. coli 25922, microbroth dilution; read-out: MIC, 25922
[2] = test system: Gram-positive Staphylococcus aureus (S. aureus) 29213; assay: Antibacterial activity, microbroth dilution MIC, S. aureus 29213; format: cell-based; settings: Staphylococcus aureus; S. aureus 29213, microbroth dilution; read-out: MIC, 29213
[3] = test system: super sensitive Gram-negative Escherichia coli (E. coli) BAS849; assay: Antibacterial activity, microbroth dilution MIC, E. coli BAS849; format: cell-based; settings: Escherichia coli; E. coli BAS849, microbroth dilution; read-out: MIC, BAS849

Row | Structure (SMILES) | MIC [1] [µg/mL] | MIC [2] [µg/mL] | MIC [3] [µg/mL]
1 | O=C(O)c1cc(C(=O)O)c(=O)[nH]c1-c1ccc(F)cc1 [Cpd 10, 6-(4-fluorophenyl)-2-oxo-1,2-dihydropyridine-3,5-dicarboxylic acid] | 12.5 to 150 (≈ 45.1 to 541 µM) | 12.5 to 150 (≈ 45.1 to 541 µM) | 12.5 to 150 (≈ 45.1 to 541 µM)
2 | CCc1cc(C(=O)O)c(=O)[nH]c1-c1ccc(C#N)cc1 [Cpd 15, 6-(4-cyanophenyl)-5-ethyl-2-oxo-1,2-dihydropyridine-3-carboxylic acid] | 12.5 to 150 (≈ 46.6 to 559 µM) | 12.5 to 150 (≈ 46.6 to 559 µM) | 12.5 to 150 (≈ 46.6 to 559 µM)
3 | CCc1cc(C(=O)O)c(=O)[nH]c1-c1cnc(N(C)C)nc1 [Cpd 19, 6-[2-(dimethylamino)pyrimidin-5-yl]-5-ethyl-2-oxo-1,2-dihydropyridine-3-carboxylic acid] | 12.5 to 150 (≈ 43.4 to 520 µM) | 12.5 to 150 (≈ 43.4 to 520 µM) | 12.5 to 150 (≈ 43.4 to 520 µM)
4 | O=C(O)c1c(O)cc(-c2ccc(N3CCCC3)cc2)[nH]c1=O [Cpd 21, 4-hydroxy-2-oxo-6-[4-(pyrrolidin-1-yl)phenyl]-1,2-dihydropyridine-3-carboxylic acid] | 12.5 to 150 (≈ 41.6 to 499 µM) | 3.5 to 12.5 (≈ 11.7 to 41.6 µM) | 3.5 to 12.5 (≈ 11.7 to 41.6 µM)
5 | CCc1cc(C(=O)O)c(=O)[nH]c1-c1ccc(-c2nnn[nH]2)cc1 [Cpd 23, 5-ethyl-2-oxo-6-[4-(1H-tetrazol-5-yl)phenyl]-1,2-dihydropyridine-3-carboxylic acid] | 12.5 to 150 (≈ 40.2 to 482 µM) | 12.5 to 150 (≈ 40.2 to 482 µM) | 12.5 to 150 (≈ 40.2 to 482 µM)
6 | CCc1cc(C(=O)O)c(=O)[nH]c1-c1ccc(F)cc1 [Cpd 26, 5-ethyl-6-(4-fluorophenyl)-2-oxo-1,2-dihydropyridine-3-carboxylic acid] | 12.5 to 150 (≈ 47.8 to 574 µM) | 12.5 to 150 (≈ 47.8 to 574 µM) | 12.5 to 150 (≈ 47.8 to 574 µM)
7 | CCc1cc(C(=O)O)c(=O)[nH]c1-c1ccc(C)cc1 [Cpd 27, 5-ethyl-6-(4-methylphenyl)-2-oxo-1,2-dihydropyridine-3-carboxylic acid] | 12.5 to 150 (≈ 48.6 to 583 µM) | 12.5 to 150 (≈ 48.6 to 583 µM) | < 1
8 | CCc1c(-c2ccc(C)cc2)[nH]c(=O)c(C(=O)O)c1O [Cpd 28, 5-ethyl-4-hydroxy-6-(4-methylphenyl)-2-oxo-1,2-dihydropyridine-3-carboxylic acid] | 12.5 to 150 (≈ 45.7 to 549 µM) | 3.5 to 12.5 (≈ 12.8 to 45.7 µM) | < 1
9 | CCc1c(-c2ccccc2N2CCCCC2)[nH]c(=O)c(C(=O)O)c1O [Cpd 29, 5-ethyl-4-hydroxy-2-oxo-6-[2-(piperidin-1-yl)phenyl]-1,2-dihydropyridine-3-carboxylic acid] | 12.5 to 150 (≈ 36.5 to 438 µM) | 1 to 3.5 (≈ 2.92 to 10.2 µM) | 1 to 3.5 (≈ 2.92 to 10.2 µM)
10 | CCc1cc(C(=O)O)c(=O)[nH]c1-c1ccccc1N1CCCCC1 [Cpd 31, 5-ethyl-2-oxo-6-[2-(piperidin-1-yl)phenyl]-1,2-dihydropyridine-3-carboxylic acid] | 12.5 to 150 (≈ 38.3 to 460 µM) | 12.5 to 150 (≈ 38.3 to 460 µM) | 12.5 to 150 (≈ 38.3 to 460 µM)
11 | CCc1c(-c2ccc(OC)cc2C)[nH]c(=O)c(C(=O)O)c1O [Cpd 32, 5-ethyl-4-hydroxy-6-(4-methoxy-2-methylphenyl)-2-oxo-1,2-dihydropyridine-3-carboxylic acid] | 12.5 to 150 (≈ 41.2 to 495 µM) | 3.5 to 12.5 (≈ 11.5 to 41.2 µM) | 3.5 to 12.5 (≈ 11.5 to 41.2 µM)
12 | CCc1cc(C(=O)O)c(=O)[nH]c1-c1ccc(OC)cc1C [Cpd 33, 5-ethyl-6-(4-methoxy-2-methylphenyl)-2-oxo-1,2-dihydropyridine-3-carboxylic acid] | 12.5 to 150 (≈ 43.5 to 522 µM) | 12.5 to 150 (≈ 43.5 to 522 µM) | 12.5 to 150 (≈ 43.5 to 522 µM)
13 | CCc1cc(C(=O)O)c(=O)[nH]c1-c1ccc(OC)cc1OC [Cpd 34, 6-(2,4-dimethoxyphenyl)-5-ethyl-2-oxo-1,2-dihydropyridine-3-carboxylic acid] | 12.5 to 150 (≈ 41.2 to 495 µM) | 12.5 to 150 (≈ 41.2 to 495 µM) | 12.5 to 150 (≈ 41.2 to 495 µM)
14 | CCc1cc(C(=O)O)c(=O)[nH]c1-c1ccc(OC)cc1N1CCCC1 [Cpd 35, 5-ethyl-6-[4-methoxy-2-(pyrrolidin-1-yl)phenyl]-2-oxo-1,2-dihydropyridine-3-carboxylic acid] | 12.5 to 150 (≈ 36.5 to 438 µM) | 12.5 to 150 (≈ 36.5 to 438 µM) | 12.5 to 150 (≈ 36.5 to 438 µM)
15 | CCc1c(-c2ccc(OC)cc2OC)[nH]c(=O)c(C(=O)O)c1O [Cpd 36, 6-(2,4-dimethoxyphenyl)-5-ethyl-4-hydroxy-2-oxo-1,2-dihydropyridine-3-carboxylic acid] | 12.5 to 150 (≈ 39.1 to 470 µM) | 12.5 to 150 (≈ 39.1 to 470 µM) | 3.5 to 12.5 (≈ 11 to 39.1 µM)
16 | CCc1cc(C(=O)O)c(=O)[nH]c1-c1ccc(N2CCCC2)cc1C [Cpd 37, 5-ethyl-6-[2-methyl-4-(pyrrolidin-1-yl)phenyl]-2-oxo-1,2-dihydropyridine-3-carboxylic acid] | 12.5 to 150 (≈ 38.3 to 460 µM) | 12.5 to 150 (≈ 38.3 to 460 µM) | 12.5 to 150 (≈ 38.3 to 460 µM)
17 | CCc1c(-c2ccc(N3CCCC3)cc2C)[nH]c(=O)c(C(=O)O)c1O [Cpd 39, 5-ethyl-4-hydroxy-6-[2-methyl-4-(pyrrolidin-1-yl)phenyl]-2-oxo-1,2-dihydropyridine-3-carboxylic acid] | 12.5 to 150 (≈ 36.5 to 438 µM) | 1 to 3.5 (≈ 2.92 to 10.2 µM) | 3.5 to 12.5 (≈ 10.2 to 36.5 µM)

Row | Structure (SMILES) | MIC [1] [µg/mL] | MIC [2] [µg/mL] | MIC [3] [µg/mL]
18 | CCc1cc(C(=O)O)c(=O)[nH]c1-c1ccc(OC)cc1N(C)C [Cpd 40, 6-[2-(dimethylamino)-4-methoxyphenyl]-5-ethyl-2-oxo-1,2-dihydropyridine-3-carboxylic acid] | 12.5 to 150 (≈ 39.5 to 474 µM) | 12.5 to 150 (≈ 39.5 to 474 µM) | 12.5 to 150 (≈ 39.5 to 474 µM)
19 | CCc1cc(C(=O)O)c(=O)[nH]c1-c1ccc(N2CCCCC2)cc1F [Cpd 43, 5-ethyl-6-[2-fluoro-4-(piperidin-1-yl)phenyl]-2-oxo-1,2-dihydropyridine-3-carboxylic acid] | 12.5 to 150 (≈ 36.3 to 436 µM) | 12.5 to 150 (≈ 36.3 to 436 µM) | < 1
20 | CCc1cc(C(=O)O)c(=O)[nH]c1-c1ccccc1N1CCCC1 [Cpd 46, 5-ethyl-2-oxo-6-[2-(pyrrolidin-1-yl)phenyl]-1,2-dihydropyridine-3-carboxylic acid] | 12.5 to 150 (≈ 40 to 480 µM) | 12.5 to 150 (≈ 40 to 480 µM) | 12.5 to 150 (≈ 40 to 480 µM)
21 | CCc1c(-c2ccccc2N2CCCC2)[nH]c(=O)c(C(=O)O)c1O [Cpd 47, 5-ethyl-4-hydroxy-2-oxo-6-[2-(pyrrolidin-1-yl)phenyl]-1,2-dihydropyridine-3-carboxylic acid] | 12.5 to 150 (≈ 38.1 to 457 µM) | 3.5 to 12.5 (≈ 10.7 to 38.1 µM) | 1 to 3.5 (≈ 3.05 to 10.7 µM)
22 | CCc1c(-c2ccc(OC)cc2N2CCCC2)[nH]c(=O)c(C(=O)O)c1O [Cpd 48, 5-ethyl-4-hydroxy-6-[4-methoxy-2-(pyrrolidin-1-yl)phenyl]-2-oxo-1,2-dihydropyridine-3-carboxylic acid] | 12.5 to 150 (≈ 34.9 to 419 µM) | 3.5 to 12.5 (≈ 9.77 to 34.9 µM) | 3.5 to 12.5 (≈ 9.77 to 34.9 µM)
23 | CCc1c(-c2ccc(N3CCCCC3)cc2C)[nH]c(=O)c(C(=O)O)c1O [Cpd 51, 5-ethyl-4-hydroxy-6-[2-methyl-4-(piperidin-1-yl)phenyl]-2-oxo-1,2-dihydropyridine-3-carboxylic acid] | 12.5 to 150 (≈ 35.1 to 421 µM) | 3.5 to 12.5 (≈ 9.82 to 35.1 µM) | 3.5 to 12.5 (≈ 9.82 to 35.1 µM)
24 | CCc1cc(C(=O)O)c(=O)[nH]c1-c1ccc(N2CCCCC2)cc1C [Cpd 52, 5-ethyl-6-[2-methyl-4-(piperidin-1-yl)phenyl]-2-oxo-1,2-dihydropyridine-3-carboxylic acid] | 12.5 to 150 (≈ 36.7 to 441 µM) | 12.5 to 150 (≈ 36.7 to 441 µM) | 12.5 to 150 (≈ 36.7 to 441 µM)
25 | CCc1cc(C(=O)O)c(=O)[nH]c1-c1ccccc1N(C)C [Cpd 54, 6-[2-(dimethylamino)phenyl]-5-ethyl-2-oxo-1,2-dihydropyridine-3-carboxylic acid] | 12.5 to 150 (≈ 43.7 to 524 µM) | 12.5 to 150 (≈ 43.7 to 524 µM) | 12.5 to 150 (≈ 43.7 to 524 µM)
26 | CCc1c(-c2ccc(N(C)C)cc2C)[nH]c(=O)c(C(=O)O)c1O [Cpd 56, 6-[4-(dimethylamino)-2-methylphenyl]-5-ethyl-4-hydroxy-2-oxo-1,2-dihydropyridine-3-carboxylic acid] | 12.5 to 150 (≈ 39.5 to 474 µM) | 3.5 to 12.5 (≈ 11.1 to 39.5 µM) | 3.5 to 12.5 (≈ 11.1 to 39.5 µM)
27 | CCc1cc(C(=O)O)c(=O)[nH]c1-c1ccc(N(C)C)cc1C [Cpd 57, 6-[4-(dimethylamino)-2-methylphenyl]-5-ethyl-2-oxo-1,2-dihydropyridine-3-carboxylic acid] | 12.5 to 150 (≈ 41.6 to 499 µM) | 12.5 to 150 (≈ 41.6 to 499 µM) | 12.5 to 150 (≈ 41.6 to 499 µM)
28 | CCc1c(-c2ccccc2N(C)C)[nH]c(=O)c(C(=O)O)c1O [Cpd 58, 6-[2-(dimethylamino)phenyl]-5-ethyl-4-hydroxy-2-oxo-1,2-dihydropyridine-3-carboxylic acid] | 12.5 to 150 (≈ 41.3 to 496 µM) | 3.5 to 12.5 (≈ 11.6 to 41.3 µM) | 3.5 to 12.5 (≈ 11.6 to 41.3 µM)
29 | CCc1cc(C(=O)O)c(=O)[nH]c1-c1ccc(N2CCCCC2)cc1OC [Cpd 59, 5-ethyl-6-[2-methoxy-4-(piperidin-1-yl)phenyl]-2-oxo-1,2-dihydropyridine-3-carboxylic acid] | 12.5 to 150 (≈ 35.1 to 421 µM) | 12.5 to 150 (≈ 35.1 to 421 µM) | 12.5 to 150 (≈ 35.1 to 421 µM)
30 | CCc1c(-c2ccc(OC)cc2N(C)C)[nH]c(=O)c(C(=O)O)c1O [Cpd 60, 6-[2-(dimethylamino)-4-methoxyphenyl]-5-ethyl-4-hydroxy-2-oxo-1,2-dihydropyridine-3-carboxylic acid] | 12.5 to 150 (≈ 37.6 to 451 µM) | 3.5 to 12.5 (≈ 10.5 to 37.6 µM) | 3.5 to 12.5 (≈ 10.5 to 37.6 µM)
31 | CCc1c(-c2ccc(N(C)C)cc2OC)[nH]c(=O)c(C(=O)O)c1O [Cpd 61, 6-[4-(dimethylamino)-2-methoxyphenyl]-5-ethyl-4-hydroxy-2-oxo-1,2-dihydropyridine-3-carboxylic acid] | 12.5 to 150 (≈ 37.6 to 451 µM) | 3.5 to 12.5 (≈ 10.5 to 37.6 µM) | 3.5 to 12.5 (≈ 10.5 to 37.6 µM)
32 | CCc1cc(C(=O)O)c(=O)[nH]c1-c1ccc(N(C)C)cc1OC [Cpd 62, 6-[4-(dimethylamino)-2-methoxyphenyl]-5-ethyl-2-oxo-1,2-dihydropyridine-3-carboxylic acid] | 12.5 to 150 (≈ 39.5 to 474 µM) | 12.5 to 150 (≈ 39.5 to 474 µM) | 12.5 to 150 (≈ 39.5 to 474 µM)
33 | CCc1c(-c2ccc(N(C)C)c(C)c2)[nH]c(=O)c(C(=O)O)c1O [Cpd 63, 6-[4-(dimethylamino)-3-methylphenyl]-5-ethyl-4-hydroxy-2-oxo-1,2-dihydropyridine-3-carboxylic acid] | 12.5 to 150 (≈ 39.5 to 474 µM) | 3.5 to 12.5 (≈ 11.1 to 39.5 µM) | 1 to 3.5 (≈ 3.16 to 11.1 µM)
34 | CCc1cc(C(=O)O)c(=O)[nH]c1-c1ccc(N(C)C)c(OC)c1 [Cpd 64, 6-[4-(dimethylamino)-3-methoxyphenyl]-5-ethyl-2-oxo-1,2-dihydropyridine-3-carboxylic acid] | 12.5 to 150 (≈ 39.5 to 474 µM) | 12.5 to 150 (≈ 39.5 to 474 µM) | 3.5 to 12.5 (≈ 11.1 to 39.5 µM)
